We go through nine compounds from ChEMBL document CHEMBL5465560, “Selectivity Literature for EUbOPEN Chemogenomic Library” (2024).

Assay [1] deals with Acetylcholinesterase (Homo sapiens) (UniProt P22303). Nature of the assay: Selectivity interaction (Panel of non-epigenetic targets (kinases, GPCRs, ion channels, and transporters, Eurofins) ) EUB0000271b ACHE. The following applies: at 1 µM.
For assay [2], the system named is Epidermal growth factor receptor (Homo sapiens), P00533 [UNDEFINED MUTATION]. Nature of the assay: Selectivity interaction (KinomeScan (DiscoverX)) EUB0000666a EGFR. Particulars: at 10 µM.
The target of assay [3] is T1, Non-receptor tyrosine-protein kinase TNK1 (Homo sapiens) (UniProt Q13470).
T1 sequence (whole entry): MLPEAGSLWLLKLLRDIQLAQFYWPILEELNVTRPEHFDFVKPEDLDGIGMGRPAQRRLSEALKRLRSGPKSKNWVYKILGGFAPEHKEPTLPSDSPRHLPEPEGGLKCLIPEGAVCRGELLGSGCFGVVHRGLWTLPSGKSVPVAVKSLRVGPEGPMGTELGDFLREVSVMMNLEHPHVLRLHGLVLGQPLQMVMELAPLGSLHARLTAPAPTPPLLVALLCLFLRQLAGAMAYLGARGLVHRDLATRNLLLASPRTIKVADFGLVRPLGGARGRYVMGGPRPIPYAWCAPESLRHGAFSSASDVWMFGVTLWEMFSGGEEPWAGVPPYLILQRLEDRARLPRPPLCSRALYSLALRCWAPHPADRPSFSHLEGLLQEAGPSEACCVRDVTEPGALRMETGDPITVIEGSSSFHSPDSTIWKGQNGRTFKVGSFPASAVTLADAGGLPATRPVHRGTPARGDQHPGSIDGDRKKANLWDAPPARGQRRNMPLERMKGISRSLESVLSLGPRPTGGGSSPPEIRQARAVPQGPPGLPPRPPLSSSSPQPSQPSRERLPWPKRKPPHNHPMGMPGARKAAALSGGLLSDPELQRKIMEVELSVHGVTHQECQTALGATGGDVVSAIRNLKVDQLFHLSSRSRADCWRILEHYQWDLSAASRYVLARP
Nature of the assay: Selectivity interaction (KinomeScan (DiscoverX)) EUB0000229b TNK1. The following applies: at 10 µM.

Assay [4] concerns the target Cyclin-dependent kinase 7 (Homo sapiens, UniProt P50613). Nature of the assay: Selectivity interaction (KinomeScan (DiscoverX)) EUB0000229b CDK7. The following applies: at 10 µM.
Assay [5] deals with T2, Dual specificity mitogen-activated protein kinase kinase 4 (Homo sapiens) (UniProt P45985).
T2 sequence (whole entry): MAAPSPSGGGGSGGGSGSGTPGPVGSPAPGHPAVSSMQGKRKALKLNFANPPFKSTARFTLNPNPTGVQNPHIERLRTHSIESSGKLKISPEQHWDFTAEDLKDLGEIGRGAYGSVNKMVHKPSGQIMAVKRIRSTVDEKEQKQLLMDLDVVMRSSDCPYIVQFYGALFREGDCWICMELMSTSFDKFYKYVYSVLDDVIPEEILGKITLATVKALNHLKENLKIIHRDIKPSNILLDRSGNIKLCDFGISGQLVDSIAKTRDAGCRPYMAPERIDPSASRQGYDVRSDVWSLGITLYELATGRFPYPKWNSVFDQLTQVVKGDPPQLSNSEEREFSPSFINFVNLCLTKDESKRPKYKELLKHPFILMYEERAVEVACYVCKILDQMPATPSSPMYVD
Put plainly: Selectivity interaction (KinomeScan (DiscoverX)) EUB0001619a MAP2K4. The following applies: at 1 µM.

The target in assay [6] is Mitogen-activated protein kinase kinase kinase 9 (Homo sapiens) (UniProt P80192). Put plainly: Selectivity interaction (KinomeScan (DiscoverX)) EUB0001619a MAP3K9. The following applies: at 1 µM.
In assay [7] the target is Serine/threonine-protein kinase 16 (Homo sapiens, UniProt O75716). Put plainly: Selectivity interaction (ActivX KiNativ screen (kinase selectivity in THP-1 cell lysates)) EUB0000639a STK16. It is filed as subcellular. Particulars: lysate, at 0.2 µM.
Assay [8] deals with Serine/threonine-protein kinase SMG1 (Homo sapiens) (UniProt Q96Q15). Nature of the assay: Selectivity interaction (ActivX KiNativ screen (kinase selectivity in THP-1 cell lysates)) EUB0000639a SMG1. The following applies: lysate, at 0.2 µM. It is filed as subcellular.
Assay [9] deals with T3, Testis-specific serine/threonine-protein kinase 3 (Homo sapiens) (UniProt Q96PN8).
T3 sequence (whole entry): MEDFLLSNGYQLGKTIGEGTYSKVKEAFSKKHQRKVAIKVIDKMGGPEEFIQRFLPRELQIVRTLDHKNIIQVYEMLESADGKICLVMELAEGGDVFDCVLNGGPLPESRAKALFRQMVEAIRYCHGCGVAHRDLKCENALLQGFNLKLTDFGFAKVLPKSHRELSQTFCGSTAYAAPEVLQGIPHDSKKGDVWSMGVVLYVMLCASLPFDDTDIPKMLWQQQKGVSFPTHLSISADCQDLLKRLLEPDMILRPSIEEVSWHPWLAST
Put plainly: Selectivity interaction (KinomeScan (DiscoverX)) EUB0001049a TSSK3. The following applies: at 1 µM.

Assay [10] addresses Calcium/calmodulin-dependent protein kinase type 1B (Homo sapiens) (UniProt Q6P2M8). Nature of the assay: Selectivity interaction (KinomeScan (DiscoverX)) EUB0001049a PNCK. The following applies: at 1 µM.
In assay [11] the target is Serine/threonine-protein kinase WNK1 (Homo sapiens) (UniProt Q9H4A3). Nature of the assay: Selectivity interaction (KinomeScan (DiscoverX)) EUB0000695a WNK1. Particulars: at 100 nM.
For assay [12], the target named is LIM domain kinase 2 (Homo sapiens) (UniProt P53671). Nature of the assay: Selectivity interaction (KinomeScan (DiscoverX)) EUB0000045b LIMK2.
The target in assay [13] is T4, Dual specificity mitogen-activated protein kinase kinase 7 (Homo sapiens) (UniProt O14733).
T4 sequence (whole entry): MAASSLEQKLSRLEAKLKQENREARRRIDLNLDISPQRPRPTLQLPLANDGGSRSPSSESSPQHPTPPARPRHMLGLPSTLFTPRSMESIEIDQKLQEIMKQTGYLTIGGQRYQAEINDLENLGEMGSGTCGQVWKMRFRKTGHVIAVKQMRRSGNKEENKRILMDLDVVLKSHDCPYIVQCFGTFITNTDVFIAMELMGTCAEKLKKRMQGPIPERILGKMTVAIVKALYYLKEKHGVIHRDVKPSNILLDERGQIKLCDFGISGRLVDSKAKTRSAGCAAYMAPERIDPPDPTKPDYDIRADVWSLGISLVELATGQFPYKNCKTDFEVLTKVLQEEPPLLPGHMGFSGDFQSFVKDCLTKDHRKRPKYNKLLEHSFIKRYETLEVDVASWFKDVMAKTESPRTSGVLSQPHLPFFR
Nature of the assay: Selectivity interaction (KinomeScan (DiscoverX)) EUB0000595a MAP2K7. Particulars: at 10 µM.

Chain of LIM domain kinase 2 (Homo sapiens) (P53671 whole entry, looked up, the tested form may be a part): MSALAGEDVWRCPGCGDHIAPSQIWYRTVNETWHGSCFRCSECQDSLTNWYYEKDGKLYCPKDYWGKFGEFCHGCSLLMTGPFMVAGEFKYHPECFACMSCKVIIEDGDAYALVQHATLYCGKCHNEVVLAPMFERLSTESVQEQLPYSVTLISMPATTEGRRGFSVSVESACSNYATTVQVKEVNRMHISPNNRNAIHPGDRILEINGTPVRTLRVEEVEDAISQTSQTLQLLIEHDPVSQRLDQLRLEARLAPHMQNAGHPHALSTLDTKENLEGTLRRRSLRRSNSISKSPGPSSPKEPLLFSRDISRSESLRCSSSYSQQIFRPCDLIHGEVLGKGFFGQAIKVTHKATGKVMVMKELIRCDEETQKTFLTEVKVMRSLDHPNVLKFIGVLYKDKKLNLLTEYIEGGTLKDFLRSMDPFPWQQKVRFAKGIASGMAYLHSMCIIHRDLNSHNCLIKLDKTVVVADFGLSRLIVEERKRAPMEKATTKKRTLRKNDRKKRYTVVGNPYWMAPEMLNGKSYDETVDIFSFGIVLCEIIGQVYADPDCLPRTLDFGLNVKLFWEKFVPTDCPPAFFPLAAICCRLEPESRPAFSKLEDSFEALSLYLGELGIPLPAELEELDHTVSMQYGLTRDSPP
Chain of Cyclin-dependent kinase 7 (P50613 whole entry): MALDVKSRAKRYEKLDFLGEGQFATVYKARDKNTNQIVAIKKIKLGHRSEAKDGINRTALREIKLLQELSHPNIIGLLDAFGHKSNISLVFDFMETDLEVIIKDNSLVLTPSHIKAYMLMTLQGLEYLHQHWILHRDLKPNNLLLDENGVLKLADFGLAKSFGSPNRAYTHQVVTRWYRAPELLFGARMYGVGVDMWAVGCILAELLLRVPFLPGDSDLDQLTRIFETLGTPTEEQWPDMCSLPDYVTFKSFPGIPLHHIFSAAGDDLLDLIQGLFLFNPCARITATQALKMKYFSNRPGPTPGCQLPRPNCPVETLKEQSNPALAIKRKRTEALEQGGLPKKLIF
Chain of Epidermal growth factor receptor (Homo sapiens), P00533 [UNDEFINED MUTATION] (P00533 whole entry, looked up, change not shown): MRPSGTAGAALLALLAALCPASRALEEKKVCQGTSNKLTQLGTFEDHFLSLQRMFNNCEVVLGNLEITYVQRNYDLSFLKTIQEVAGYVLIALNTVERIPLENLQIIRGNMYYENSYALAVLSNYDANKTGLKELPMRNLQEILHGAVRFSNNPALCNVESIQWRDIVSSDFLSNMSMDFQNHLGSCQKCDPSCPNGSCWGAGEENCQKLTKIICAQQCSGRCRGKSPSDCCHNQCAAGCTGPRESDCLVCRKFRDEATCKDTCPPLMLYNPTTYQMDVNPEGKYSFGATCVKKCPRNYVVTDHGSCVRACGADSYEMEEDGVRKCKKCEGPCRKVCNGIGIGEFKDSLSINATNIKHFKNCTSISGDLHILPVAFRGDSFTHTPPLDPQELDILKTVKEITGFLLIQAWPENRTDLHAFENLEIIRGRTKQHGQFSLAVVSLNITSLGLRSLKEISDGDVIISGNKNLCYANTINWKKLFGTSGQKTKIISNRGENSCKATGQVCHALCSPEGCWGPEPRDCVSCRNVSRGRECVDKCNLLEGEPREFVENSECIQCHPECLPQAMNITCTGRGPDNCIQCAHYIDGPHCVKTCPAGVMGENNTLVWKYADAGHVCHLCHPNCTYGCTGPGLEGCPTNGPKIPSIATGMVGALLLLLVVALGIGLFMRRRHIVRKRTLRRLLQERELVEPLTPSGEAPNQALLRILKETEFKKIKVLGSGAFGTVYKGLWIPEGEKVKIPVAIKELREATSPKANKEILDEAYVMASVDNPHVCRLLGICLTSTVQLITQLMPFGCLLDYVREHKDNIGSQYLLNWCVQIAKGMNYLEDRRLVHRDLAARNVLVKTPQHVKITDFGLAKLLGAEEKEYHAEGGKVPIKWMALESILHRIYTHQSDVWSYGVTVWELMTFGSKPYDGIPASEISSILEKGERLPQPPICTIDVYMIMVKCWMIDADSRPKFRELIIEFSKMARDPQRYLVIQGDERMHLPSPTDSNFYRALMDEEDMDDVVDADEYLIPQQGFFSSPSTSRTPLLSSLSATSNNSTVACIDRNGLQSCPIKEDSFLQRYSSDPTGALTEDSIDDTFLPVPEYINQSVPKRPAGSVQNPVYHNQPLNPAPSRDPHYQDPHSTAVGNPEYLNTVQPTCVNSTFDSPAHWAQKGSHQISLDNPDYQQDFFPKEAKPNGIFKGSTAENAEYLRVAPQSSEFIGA
Chain of Serine/threonine-protein kinase WNK1 (Homo sapiens) (Q9H4A3 whole entry, looked up, the tested form may be a part): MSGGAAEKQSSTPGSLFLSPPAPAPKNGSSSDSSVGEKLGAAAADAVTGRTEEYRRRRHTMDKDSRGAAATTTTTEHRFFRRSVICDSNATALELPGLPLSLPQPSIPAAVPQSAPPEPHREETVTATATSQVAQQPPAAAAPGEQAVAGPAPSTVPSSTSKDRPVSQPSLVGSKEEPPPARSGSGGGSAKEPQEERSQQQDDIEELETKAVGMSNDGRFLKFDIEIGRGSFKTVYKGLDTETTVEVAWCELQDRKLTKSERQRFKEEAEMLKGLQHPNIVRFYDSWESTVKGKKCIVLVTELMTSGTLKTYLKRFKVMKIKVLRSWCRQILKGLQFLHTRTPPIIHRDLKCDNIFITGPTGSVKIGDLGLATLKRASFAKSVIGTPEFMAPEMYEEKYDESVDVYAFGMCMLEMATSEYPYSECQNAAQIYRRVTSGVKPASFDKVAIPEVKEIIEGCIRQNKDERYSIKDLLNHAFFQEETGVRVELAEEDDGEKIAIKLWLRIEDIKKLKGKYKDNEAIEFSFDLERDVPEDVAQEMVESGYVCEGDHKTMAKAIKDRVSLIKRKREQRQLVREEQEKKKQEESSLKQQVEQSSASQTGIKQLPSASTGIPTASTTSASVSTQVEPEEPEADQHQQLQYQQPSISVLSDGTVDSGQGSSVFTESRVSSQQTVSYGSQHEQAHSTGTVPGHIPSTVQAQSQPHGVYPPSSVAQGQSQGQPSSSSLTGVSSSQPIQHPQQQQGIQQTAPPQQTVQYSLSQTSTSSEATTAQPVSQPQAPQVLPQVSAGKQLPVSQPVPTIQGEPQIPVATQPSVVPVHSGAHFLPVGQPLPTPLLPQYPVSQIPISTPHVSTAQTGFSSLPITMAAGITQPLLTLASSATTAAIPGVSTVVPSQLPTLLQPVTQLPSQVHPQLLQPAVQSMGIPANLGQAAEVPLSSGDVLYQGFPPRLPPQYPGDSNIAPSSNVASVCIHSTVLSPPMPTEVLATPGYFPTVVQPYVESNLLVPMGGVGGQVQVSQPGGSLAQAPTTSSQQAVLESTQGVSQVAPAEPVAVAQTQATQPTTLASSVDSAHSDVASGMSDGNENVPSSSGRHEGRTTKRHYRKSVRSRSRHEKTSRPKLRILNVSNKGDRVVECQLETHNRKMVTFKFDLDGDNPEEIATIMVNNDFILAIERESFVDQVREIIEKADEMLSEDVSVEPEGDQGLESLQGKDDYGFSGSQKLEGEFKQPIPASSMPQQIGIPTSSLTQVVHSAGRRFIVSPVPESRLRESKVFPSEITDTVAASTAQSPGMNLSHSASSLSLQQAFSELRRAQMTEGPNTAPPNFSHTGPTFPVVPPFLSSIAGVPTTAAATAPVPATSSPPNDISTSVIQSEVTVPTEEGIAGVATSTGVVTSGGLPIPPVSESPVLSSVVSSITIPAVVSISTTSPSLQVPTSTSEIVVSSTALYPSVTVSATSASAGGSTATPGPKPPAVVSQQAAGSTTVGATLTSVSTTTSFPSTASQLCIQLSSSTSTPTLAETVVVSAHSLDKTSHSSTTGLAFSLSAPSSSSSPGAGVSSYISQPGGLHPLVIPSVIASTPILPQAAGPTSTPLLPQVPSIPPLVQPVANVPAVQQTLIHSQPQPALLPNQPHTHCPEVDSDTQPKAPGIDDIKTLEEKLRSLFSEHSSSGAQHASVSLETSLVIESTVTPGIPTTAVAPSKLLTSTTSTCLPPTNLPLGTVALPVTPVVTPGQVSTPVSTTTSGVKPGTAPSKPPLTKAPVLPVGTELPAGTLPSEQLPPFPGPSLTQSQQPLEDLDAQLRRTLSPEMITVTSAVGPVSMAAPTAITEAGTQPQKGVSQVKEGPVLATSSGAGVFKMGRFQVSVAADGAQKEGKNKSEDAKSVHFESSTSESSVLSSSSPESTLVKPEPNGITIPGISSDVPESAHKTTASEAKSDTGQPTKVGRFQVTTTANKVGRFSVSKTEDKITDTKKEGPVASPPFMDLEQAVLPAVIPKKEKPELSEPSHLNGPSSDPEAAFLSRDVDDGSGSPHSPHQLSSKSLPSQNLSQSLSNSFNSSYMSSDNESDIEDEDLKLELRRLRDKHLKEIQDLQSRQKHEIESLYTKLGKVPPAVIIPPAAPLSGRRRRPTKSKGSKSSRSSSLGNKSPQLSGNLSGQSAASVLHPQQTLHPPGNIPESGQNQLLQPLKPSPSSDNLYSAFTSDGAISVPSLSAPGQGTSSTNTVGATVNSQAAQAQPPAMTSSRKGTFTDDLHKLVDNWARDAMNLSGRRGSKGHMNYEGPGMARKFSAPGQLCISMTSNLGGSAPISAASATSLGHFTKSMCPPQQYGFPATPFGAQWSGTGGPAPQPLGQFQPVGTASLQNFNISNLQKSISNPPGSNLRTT
Chain of Serine/threonine-protein kinase 16 (O75716 whole entry): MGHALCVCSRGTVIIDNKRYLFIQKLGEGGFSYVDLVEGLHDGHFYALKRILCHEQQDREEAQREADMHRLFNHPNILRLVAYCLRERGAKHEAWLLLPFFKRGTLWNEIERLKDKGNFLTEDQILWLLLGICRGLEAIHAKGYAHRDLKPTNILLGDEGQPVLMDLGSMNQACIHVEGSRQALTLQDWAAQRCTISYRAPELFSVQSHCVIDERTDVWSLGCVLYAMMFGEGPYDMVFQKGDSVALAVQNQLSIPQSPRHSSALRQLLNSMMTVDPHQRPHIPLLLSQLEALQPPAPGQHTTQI

`Cc1cc(C)cc([C@@H]2c3cc(C)ccc3NC(=O)CN2C(=O)c2ccc(Br)s2)c1`: the % of inhibition in assay [1] worked out at 7%.
For the compound `O=C(NOC[C@H](O)CO)c1ccc(F)c(F)c1Nc1ccc(I)cc1F`, the % of control in [2] was 51%.
Consider `COc1cc(N(C)c2ccnc3ccc(C(F)(F)F)cc23)cc(OC)c1OC`, for which the % binding amounted to 63% in assay [3] and 57% in assay [4].
For the compound `N#Cc1cccc(-c2c[nH]c3ncnc(N4CCOCC4)c23)c1`, the % of control came to 100% in assay [5] and 72% in assay [6].
With `CC[C@@H]1[C@H](F)C(=O)N[C@@H]1COc1nccc2cc(C(N)=O)c(OC)cc12` [ZIMLOVISERTIB], the % of inhibition in [7] was 35.1%; in [8], 0%.
Turning to `COc1cc(Nc2nc(C)cc(-c3cnn4nc(OC)ccc34)n2)cc(C(F)(F)F)c1`, the % of control in assay [9] and in assay [10] was 100% each time.
Turning to `Cc1cc(F)c(C(=O)Nc2cccc(-c3nncn3C(C)C)n2)cc1-n1cnc(C2CC2)c1`, in [11], the % of control was 100%.
With `C=CC(=O)Nc1cc(-n2c(=O)ccc3cnc4ccc(-c5ccc(NS(C)(=O)=O)cc5)cc4c32)ccc1C`, the figures for the % of control in [12] (at 1 µM) and in [12] (at 10 µM) were 92% and 100%, respectively.
`COCC(=O)NC/C=C/c1ccc2ncnc(Nc3ccc(Oc4ccc(C)nc4)c(C)c3)c2c1` [CP-724714] yielded a % of control in assay [13] of 100%.
